Measurements: US9221985B2, “Solvent compositions” (TBF Environmental Technology, Inc., priority 2013, dated 2015)
Like-named read-outs stand apart in the source and are kept apart here.

What was measured:
[1] = Viscosity of Paraloid B-66 DMC acrylic resin with reduction in solids; type: physicochemical
[2] = Hansen solubility parameters
Source text: In some embodiments, a solvent composition according to the present disclosure includes an acetate ester, such as MA, EA, or TBAc, in combination with one or more additional reagents to increase dispersion and decrease hydrogen bonding and/or to decrease the polarity of the solvent composition.

[3] = Evaporation rate relative to n-butyl acetate / xylene; type: physicochemical
Source text: […]. […] Without being bound to any particular theory, the “tail” solvent may slow the drying of a coating towards the end, allowing time for it to flow and level, and preventing dry spray, thereby improving the film appearance.
The evaporation rate of Formulation 1vs xylene was examined (FIG. 1). Formulation 1 was faster evaporating than xylene by a factor of 1.63-1.65. However it was apparent that the evaporation rate of Formulation 1 slowed towards the end. This slower “Tail” would aid in flow and leveling and help prevent dry spray.

[4] = Solvency or reduction characteristics: viscosity of epoxy resin reduced with solvent; type: physicochemical
[5] = Physical/chemical characteristics of the solvents (specific gravity, flash point, boiling point, viscosity, surface tension, volatility); conditions: for Surface tension: at 20° C.
[6] = cited from earlier work
[7] = reduced to 35.0% non-volatile with the solvent
[8] = reduced to 40.0% non-volatile with the solvent
[9] = relative to n-butyl acetate = 1
[10] = EPON 828 reduced to 95% solids content by weight

COC(=O)OC [DMC, dimethyl carbonate]
Viscosity of Paraloid B-66 DMC [1, 7]: 370 cps | Viscosity of Paraloid B-66 DMC [1, 8]: 970 cps

FC(F)(F)c1ccc(Cl)cc1 [PCBTF, parachlorobenzotrifluoride]
δ (Hansen solubility parameter) [2]: 9.15 cal^1/2 cm^−3/2 | δD (dispersion) [2]: 8.8 cal^1/2 cm^−3/2 | δH (hydrogen bonding) [2]: 1.9 cal^1/2 cm^−3/2 | δP (polar) [2]: 2.9 cal^1/2 cm^−3/2 | Evaporation rate (n-butyl acetate = 1) [3, 9]: 0.9 | Viscosity @ 20 RPM ([4]; EPON 828, 50% solids content): 27 cps | Viscosity @ 20 RPM ([4]; EPON 828, 55% solids content): 38 cps | Viscosity @ 20 RPM ([4]; EPON 828, 60% solids content): 52 cps | Viscosity @ 20 RPM ([4]; EPON 828, 65% solids content): 91 cps | Viscosity @ 20 RPM ([4]; EPON 828, 70% solids content): 153 cps | Viscosity @ 20 RPM ([4]; EPON 828, 75% solids content): 278 cps | Viscosity @ 20 RPM ([4]; EPON 828, 80% solids content): 544 cps | Viscosity @ 20 RPM ([4]; EPON 828, 85% solids content): 1010 cps | Viscosity @ 20 RPM ([4]; EPON 828, 90% solids content): 1900 cps | Viscosity @ 20 RPM [4, 10]: 5125 cps | Viscosity of Paraloid B-66 DMC [1, 7]: 450 cps | Viscosity of Paraloid B-66 DMC [1, 8]: 1050 cps | Boiling Point [5]: 139 °C | Viscosity @ 20° C. [5]: 0.79 (mPa · s) cP | Specific Gravity (@25° C.) [5]: 1.34 | Flashpoint (TCC) [5]: 109 °C | Surface tension [5]: 25 dyn/cm

xylene [Xylenes]
δD (dispersion) [2]: 9.2 cal^1/2 cm^−3/2 | δH (hydrogen bonding) [2]: 1.15 cal^1/2 cm^−3/2 | δP (polar) [2]: 1.3 cal^1/2 cm^−3/2 | Evaporation rate (n-butyl acetate = 1) [3]: 0.9 | Viscosity @ 20 RPM ([4]; EPON 828, 50% solids content): 13 cps | Viscosity @ 20 RPM ([4]; EPON 828, 55% solids content): 17 cps | Viscosity @ 20 RPM ([4]; EPON 828, 60% solids content): 19 cps | Viscosity @ 20 RPM ([4]; EPON 828, 65% solids content): 28 cps | Viscosity @ 20 RPM ([4]; EPON 828, 70% solids content): 40 cps | Viscosity @ 20 RPM ([4]; EPON 828, 75% solids content): 76 cps | Viscosity @ 20 RPM ([4]; EPON 828, 80% solids content): 148 cps | Viscosity @ 20 RPM ([4]; EPON 828, 85% solids content): 330 cps | Viscosity @ 20 RPM ([4]; EPON 828, 90% solids content): 880 cps | Viscosity @ 20 RPM [4, 10]: 3350 cps | Viscosity of Paraloid B-66 DMC [1, 7]: 580 cps | Viscosity of Paraloid B-66 DMC [1, 8]: 1500 cps | Boiling Point [5]: 110.6-144 °C | Viscosity @ 20° C. [5]: 0.34-0.8 (mPa · s) cP | Specific Gravity (@25° C.) [5]: 0.87 | Flashpoint (TCC) [5]: 17-25 °C | Flashpoint (TCC) ([5]; listed as xylene): 30 °C | Surface tension [5]: 25.32-28.27 dyn/cm

COC(C)=O [MA, methyl acetate]
δ (Hansen solubility parameter) [2]: 9.5 cal^1/2 cm^−3/2 | δD (dispersion) [2]: 7.6 cal^1/2 cm^−3/2 | δH (hydrogen bonding) [2]: 3.7 cal^1/2 cm^−3/2 | δP (polar) [2]: 3.5 cal^1/2 cm^−3/2 | Evaporation rate (n-butyl acetate = 1) [3, 9]: 6.2 | solubility in water ([6]; in water at room temperature): 25% | stability ([6]; strong aqueous bases or aqueous acids): not stable in the presence of strong aqueous bases or aqueous acids | Boiling Point [5]: 56 °C | Viscosity @ 20° C. [5]: 0.37 (mPa · s) cP | Specific Gravity (@25° C.) [5]: 0.93 | Flashpoint (TCC) [5]: −4 °C | Surface tension [5]: 24.8 dyn/cm

CC(=O)OC(C)(C)C [TBAc, tert-butyl acetate]
δD (dispersion) [2]: 7 cal^1/2 cm^−3/2 | δH (hydrogen bonding) [2]: 2.9 cal^1/2 cm^−3/2 | δP (polar) [2]: 1.7 cal^1/2 cm^−3/2 | Evaporation rate (n-butyl acetate = 1) [3]: 2.8 | Viscosity @ 20 RPM ([4]; EPON 828, 50% solids content): 15 cps | Viscosity @ 20 RPM ([4]; EPON 828, 55% solids content): 19 cps | Viscosity @ 20 RPM ([4]; EPON 828, 60% solids content): 22 cps | Viscosity @ 20 RPM ([4]; EPON 828, 65% solids content): 26 cps | Viscosity @ 20 RPM ([4]; EPON 828, 70% solids content): 81 cps | Viscosity @ 20 RPM ([4]; EPON 828, 75% solids content): 93 cps | Viscosity @ 20 RPM ([4]; EPON 828, 80% solids content): 192 cps | Viscosity @ 20 RPM ([4]; EPON 828, 85% solids content): 430 cps | Viscosity @ 20 RPM ([4]; EPON 828, 90% solids content): 1150 cps | Viscosity @ 20 RPM [4, 10]: 4250 cps | Viscosity of Paraloid B-66 DMC [1, 7]: 290 cps | Viscosity of Paraloid B-66 DMC [1, 8]: 780 cps | Boiling Point [5]: 98 °C | Viscosity @ 20° C. [5]: 0.7 (mPa · s) cP | Specific Gravity (@25° C.) [5]: 0.87 | Flashpoint (TCC) [5]: 16.7 °C | Surface tension [5]: 22.4 dyn/cm

Cc1ccccc1 [Toluene, toluene]
δD (dispersion) [2]: 8.8 cal^1/2 cm^−3/2 | δH (hydrogen bonding) [2]: 0.98 cal^1/2 cm^−3/2 | δP (polar) [2]: 0.68 cal^1/2 cm^−3/2 | Evaporation rate (n-butyl acetate = 1) [3, 9]: 1.9 | Viscosity @ 20° C. [5]: 0.59 (mPa · s) cP | Specific Gravity (@25° C.) [5]: 0.86 | Flashpoint (TCC) [5]: 16 °C | Surface tension [5]: 27.73 dyn/cm
